From patent US20050261129A1, “Method of protecting plants from bacterial and fungal diseases” (priority 2003, published 2005)

Test system: tomato seedlings
Assay: Tomato SAR trial, greenhouse foliar vigour (phytotoxicity) ratings (Example 9)
Conditions: 0, severe foliar injury; 10, foliage green in excellent health; each treatment followed by BONZI 5 ppm
Method: Tomatoes were seeded in a green house and the SAR compositions applied three separate times, first as a drench nine days after seeding, the second at the 2-leaf stage 15 days after seeding, and finally as a foliar application in the filed approximately two months from seeding. Each treatment was followed up by a 5 ppm application of a plant growth regulator comprising paclobutrazol available under the name BONZI from Syngenta, Greensboro, N.C. […] This procedure was replicated four times in a randomized complete block design. […] Phytotoxicity ratings were also taken in green house prior to transplanting.

SMILES	Greenhouse Evaluations: Foliar Vigour Ratings (0-10)
COC(=O)[C@@]1(C)CC[C@]2(C(=O)O)CC[C@]3(C)C(=CCC4[C@@]5(C)CCC(O)[C@@](C)(CO)C5CC[C@]43C)C2C1 (stereo partly drawn) [Sapogenin 1, Phytolaccagenic acid]	5.7
CC1(C)CC[C@]2(C(=O)O)CC[C@]3(C)C(=CC[C@@H]4[C@@]5(C)CC[C@H](O)[C@@](C)(CO)[C@@H]5CC[C@]43C)[C@@H]2C1 [Sapogenin 2, Hederagenin]	5.3
CC1(C)CC[C@]2(C(=O)O)CC[C@]3(C)C(=CC[C@@H]4[C@@]5(C)CC[C@H](O)C(C)(C)[C@@H]5CC[C@]43C)[C@@H]2C1 [Sapogenin 3, Oleanolic acid]	4.7
COC(=O)[C@@]1(C)CC[C@]2(C(=O)O)CC[C@]3(C)C(=CCC4[C@@]5(C)CCC(O)[C@@](C)(CO)C5CC[C@]43C)C2C1 (stereo partly drawn) [Sapogenin 4, Phytolaccagenic acid]	4.3
CC1(C)CC[C@]2(C(=O)O)CC[C@]3(C)C(=CC[C@@H]4[C@@]5(C)CC[C@H](O)[C@@](C)(CO)[C@@H]5CC[C@]43C)[C@@H]2C1 [Sapogenin 5, Hederagenin]	4.3
CC1(C)CC[C@]2(C(=O)O)CC[C@]3(C)C(=CC[C@@H]4[C@@]5(C)CC[C@H](O)C(C)(C)[C@@H]5CC[C@]43C)[C@@H]2C1 [Sapogenin 6, Oleanolic acid]	4.3
